How the values were obtained:
[1] = system: Hamsters; experiment: Bleomycin-induced pulmonary toxicity in hamsters: lung hydroxyproline content; type: in vivo, hamster; details: pre-treatment i.p. (ALC 200 mg/kg or saline, daily 1 week)/intratracheal instillation (bleomycin 1 unit or saline); day 22
Procedure: Hamsters weighing 120 g were treated with bleomycin (1 unit) by the intratracheal route (IT) or with an equivalent volume of saline. In addition, the animals were pre-treated with ALC (200 mg/kg) or saline intraperitoneally just before the instillation of bleomycin, followed by daily injections for 1 week. The animals were allowed 3 weeks to recover prior to taking the tissue samples. At the time tissue samples were taken (day 22), one lung of each animal was prepared for histological investigation and the other lung for quantitative determination of hydroxyproline.
The hydroxyproline content (one of the main constituents of collagen) was measured using the known Woessner method. Lung samples were homogenised, hydrolysed with NaOH, and then left to oxidise before adding Erlich aldehyde reagent. Duplicate aliquots of each sample were assayed by spectrophotometry and compared with a standard calibration curve obtained with purified hydroxyproline. The hydroxyproline content (HYP) is expressed as mg/lung.

[2] = system: Female Wistar rats; experiment: Taxol-induced peripheral neuropathy: sensory nerve conduction velocity measured on the tail; details: 5 weeks
Procedure: Female Wistar rats aged 3 months (Charles River) were used, housed at 22±2° C., with 50±15% relative humidity and a 12 hour light/darkness cycle.
The following method was used: the animals, anaesthetised with a gaseous mixture composed of 0.45 halothane, nitrogen protoxide and oxygen, were depilated in the stimulation zone and placed on an operating table. The recordings and stimulations of the sensory responses were done using an Ote Biomedica Phasis II electromyograph. […]
The sensory nerve conduction velocity, expressed in ms, was calculated as the ratio of the distance between the two stimulation points, expressed in mm, to the difference in latency of the waves produced by proximal (the nearest) and distal (the farthest from the dorsal spine) stimulation, expressed in ms.
The velocity was measured in all groups of animals both in basal conditions (prior to any administration) and after 5 weeks of treatment.
The results were expressed as means±standard deviation; significance was assessed using the “t”-test, for both independent and paired data, with a statistical significance cut-off of p<0.05.

CC(=O)O[C@H](CC(=O)[O-])C[N+](C)(C)C [ALC, acetyl L-carnitine]
hydroxyproline content (HYP) [1]: 0.801 mg/lung
Sensory nerve conduction velocity, % vs TAXOL ([2]; acetyl L-carnitine with taxol 8 mg/kg): 5%
Sensory nerve conduction velocity, % vs TAXOL ([2]; acetyl L-carnitine with taxol 16 mg/kg): 9%

From patent publication US6610699B2, “Use of L-carnitine and its alkanoyl derivatives in the preparation of medicaments with anticancer activity” (Sigma-Tau Industrie Farmaceutiche Riunite S.p.A., priority 1998, dated 2003)
